“Also recorded” adds a separate entry of the source.

For one assay, the system named is ICR mice. Nature of the assay: acetic acid writhing assay. In kind it is in vivo, mouse. The following applies: for number of writhes induced by acetic acid: ICR mice, 2 h before acetic acid i.p., counted for 30 min, vs vehicle; for number of writhes induced by acetic acid (FIGURE legend): mouse, p.o., dose not stated in the legend, *p<0.05 vs vehicle. How it is done:
d. Analgesic Effect in Acetic Acid Writhing Assay
ICR mice were pretreated with vehicle (0.5 w/v % methyl cellulose, p.o.) or Example 1-25 compounds (0.3, 1, 3 mg/kg, p.o.) or Example 2 compounds (1, 10, 300 mg/kg, p.o.) or indomethacin (10 mg/kg, p.o.). Compounds were suspended in 0.5 w/v % methyl cellulose and indomethacin was dissolved in 0.7% sodium bicarbonate. All drugs were administered in a volume of 10 mL/kg. Two hours after administration of the disclosed compounds and vehicle, or one hour after administration of indomethacin, the animals were injected with acetic acid (0.7% v/v in saline, 10 mL/kg, i.p.). The number of writhes (characterized by contraction of the abdominal musculature and extension of the limbs) was then counted for 30 min. Analgesic effect was evaluated by comparing the number of writhes between the rest compounds group and the vehicle group.

A further assay concerns the target T1, human TREK-1 (Homo sapiens, UniProt O95069).
T1 construct: expressed in transfected cells
T1 sequence (O95069 1-426): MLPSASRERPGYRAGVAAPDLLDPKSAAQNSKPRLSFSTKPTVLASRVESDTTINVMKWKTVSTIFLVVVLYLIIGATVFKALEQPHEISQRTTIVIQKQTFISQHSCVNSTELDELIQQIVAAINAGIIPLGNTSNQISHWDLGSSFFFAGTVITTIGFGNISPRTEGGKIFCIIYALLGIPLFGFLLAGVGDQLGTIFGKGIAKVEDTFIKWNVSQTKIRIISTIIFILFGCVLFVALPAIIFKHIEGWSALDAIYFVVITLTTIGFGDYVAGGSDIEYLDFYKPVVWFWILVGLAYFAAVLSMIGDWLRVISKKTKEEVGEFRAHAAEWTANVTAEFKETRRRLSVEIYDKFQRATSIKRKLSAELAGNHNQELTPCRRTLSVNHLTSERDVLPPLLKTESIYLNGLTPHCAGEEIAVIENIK
The experiment in a line: thallium flux assay (TREK1 activation normalized to BL-1249). The following applies: normalized to 10 μM BL-1249, CHO-K1 cells stably expressing human TREK-1; for activation at 10 µM / TREK1 activation RBL-1249 (%): concentration of Example compound 10 μM; for activation at 10 µM / activation at 30 µM: read-out: TREK1 activation RBL-1249 (%); for activation at 30 µM: concentration of Example compound 30 μM. It is filed as cell-based. How it is done: The term “thallium flux assay” herein refers to a fluorescence-based assay used to monitor the activity of TREK channels. Thallium is a congener of potassium that readily fluxes through the pore of TREK channels. Thallium flux is measured using a commercially available, thallium-sensitive fluorescent dye called Thallos. The detail method is described below.
Method 1 (Thallium Flux Assay);
CHO-K1 cells stably expressing human TREK-1 or HEK293 cells stably expressing human TREK-2 are plated in 384-well plates, cultured overnight, loaded with Thallos dye the following day, treated with test compounds for 10 min, and then treated with thallium stimulus buffer to initiate thallium flux. The change in fluorescence at 25 seconds after thallium addition is normalized to baseline fluorescence (fluorescent intensity at 25 sec after Tl^+ addition)/(average of fluorescent intensity at pre-read).

As to `O=C(NCc1ccc(OC(F)(F)F)cc1F)c1ccc2ncnn2c1` [Example 1-25, N-[2-fluoro-4-(trifluoromethoxy)benzyl][1,2,4]triazolo[1,5-a]pyridine-6-carboxamide], in the assay on ICR mice (3 mg/kg p.o., 3 mg/kg), the “number of writhes induced by acetic acid” value was “significantly decreased the number of writhes; also recorded: the same degree as indomethacin 10 mg/kg”. Also, the “number of writhes induced by acetic acid (FIGURE legend)” value in the assay with ICR mice was “inhibit the number of writhes induced by acetic acid”. Also, on human TREK-1, the activation at 10 µM came out at 82%.

Turning to `Cc1cc(OC(F)(F)F)ccc1CNC(=O)c1ccc(-n2cncn2)nc1` [Example 2, N-[2-Methyl-4-(trifluoromethoxy)benzyl]-6-(1H-1,2,4-triazol-1-yl)nicotinamide], the “number of writhes induced by acetic acid” value in the assay on ICR mice (300 mg/kg p.o., 300 mg/kg) is “significantly decreased the number of writhes; also recorded: the same degree as indomethacin 10 mg/kg”. Further, in the assay with ICR mice, the “number of writhes induced by acetic acid (FIGURE legend)” value is “inhibit the number of writhes induced by acetic acid”. Also, the activation at 30 µM at human TREK-1 stood at 20%.

For `COc1cc(OC(F)(F)F)ccc1CNC(=O)c1ccc(NS(C)(=O)=O)nc1` [Example 8-2, N-[2-methoxy-4-(trifluoromethoxy)benzyl]-6-[(methylsulfonyl)amino]nicotinamide], the activation at 30 µM on human TREK-1 amounted to 48%.

In the case of `O=C(NCc1ccc(OC(F)(F)F)c(F)c1)c1ccc(-c2nc[nH]n2)cc1` [Example 2-22, N-[3-fluoro-4-(trifluoromethoxy)benzyl]-4-(1H-1,2,4-triazol-3-yl)benzamide], the activation at 10 µM at human TREK-1 turned out to be 66%.

Take `Cc1cc(OC(F)(F)F)ccc1CNC(=O)c1ccn2ccnc2c1` [Example 1-87, N-[[2-methyl-4-(trifluoromethoxy)phenyl]methyl]imidazo[1,2-a]pyridine-7-carboxamide]: the activation at 10 µM at human TREK-1 came out at 72%.

On to `O=C(NCc1ccc(Br)cc1Cl)c1ccc(-c2ncn[nH]2)cc1` [Example 2-49, N-(4-bromo-2-chlorobenzyl)-4-(1H-1,2,4-triazol-5-yl)benzamide], for which the activation at 10 µM at human TREK-1 is 84%.

`COc1cc(OC(F)(F)F)ccc1CNC(=O)c1ccc(-c2noc(=O)[nH]2)cc1` [Example 4, N-[2-Methoxy-4-(trifluoromethoxy)benzyl]-4-(5-oxo-4,5-dihydro-1,2,4-oxadiazol-3-yl)benzamide]: the activation at 30 µM on human TREK-1 is 77%.

Regarding `Cc1cc2ncc(C(=O)NCc3ccc(OC(F)(F)F)cc3Cl)cn2n1` [Example 9-19, N-[2-chloro-4-(trifluoromethoxy)benzyl]-2-methylpyrazolo[1,5-a]pyrimidine-6-carboxamide], the activation at 10 µM at human TREK-1 was 68%.

Regarding `Cc1nnc2cc(C(=O)NCc3ccc(OC(F)(F)F)cc3Cl)ccn12` [Example 9-11], the “TREK1 activation RBL-1249 (%)” value at human TREK-1 is given as 126%.

As for `O=C(NCc1ccc(OC(F)(F)F)cc1)c1cnc(C(F)(F)F)nc1` [Example 1-34, N-[4-(trifluoromethoxy)benzyl]-2-(trifluoromethyl)-5-pyrimidinecarboxamide], the activation at 10 µM at human TREK-1 was determined as 33%.

Consider `O=C(NCc1ccc(OC(F)(F)F)cc1)c1ccc(-c2cnc[nH]2)cc1` [Example 2-10, 4-(1H-imidazol-5-yl)-N-[4-(trifluoromethoxy)benzyl]benzamide], for which the activation at 10 µM on human TREK-1 came to 46%.

In the case of `COc1cc(OC(F)(F)F)ccc1CNC(=O)c1ccc(-n2cncn2)cc1` [Example 2-1, N-[2-methoxy-4-(trifluoromethoxy)benzyl]-4-(1H-1,2,4-triazol-1-yl)benzamide], the activation at 10 µM on human TREK-1 was 54%.

`O=C(NCc1ccc(OC(F)(F)F)cc1)c1nc(-c2ccccn2)cs1` [Example 2-32, 4-(2-pyridinyl)-N-[4-(trifluoromethoxy)benzyl]-1,3-thiazole-2-carboxamide]: the activation at 30 µM on human TREK-1 worked out at 38%.

For `Cc1cc(C(=O)NCc2ccc(Br)cc2Cl)cn2ncnc12` [Example 3-2, N-(4-bromo-2-chlorobenzyl)-8-methyl[1,2,4]triazolo[1,5-a]pyridine-6-carboxamide], the activation at 30 µM on human TREK-1 was 41%.

`O=C(NCc1ccc(OC(F)(F)F)cc1Cl)c1cnc2ccnn2c1` [Example 9-8, N-[[2-chloro-4-(trifluoromethoxy)phenyl]methyl]pyrazo1o[1,5-a]pyrimidine-6-carboxamide]: the “TREK1 activation RBL-1249 (%)” value on human TREK-1 stood at 106%.

Take `O=C(NCc1ccc(OC(F)(F)F)cc1F)c1cnc2ccnn2c1` [Example 1-81, N-[[2-fluoro-4-(trifluoromethoxy)phenyl]methyl]pyrazolo[1,5-a]pyrimidine-6-carboxamide]: the activation at 10 µM on human TREK-1 came out at 78%.

Source of the values: US11851428B2, “Activator of TREK (TWIK RElated K+channels) channels” (ONO PHARMACEUTICAL CO., LTD., priority 2016, dated 2023).
